Test results taken from patent US6916825B2, “Alkylated imidazopyridine derivatives” (Altana Pharma AG, priority 2000, dated 2005).

Legend:
[1] = tested on: acid secretion of the perfused rat stomach stimulated by pentagastrin; assay: Secretion-inhibiting action on perfused rat stomach (pentagastrin-stimulated acid secretion); format: in vivo; details: anesthetized CD rats, dose 1 μmol/kg i.v.
Text: Testing of the Secretion-inhibiting Action on Perfused Rat Stomach
In table A below, the influence of the compounds according to the invention after intravenous administration is shown on the acid secretion of the perfused rat stomach stimulated by pentagastrin.
The abdomen of anesthetized rats (CD rats, female, 200-250 g; 1.5 g/kg of i.m. urethane) was opened after tracheotomy by a median upper abdominal incision and a PVC catheter was fixed transorally in the esophagus and a further one via the pylorus such that the ends of the tubing just still projected into the gastric lumen. The catheter leading from the pylorus led outwards via a side opening in the right abdominal wall.
After thorough rinsing (about 50-100 ml), a continuous flow of warm physiological NaCl solution (0.5 ml/min, pH 6.8-6.9; Braun-Unita I) was continuously passed through the stomach at 37° C. The pH in the effluent, in each case collected at an interval of 15 minutes, was determined (pH meter 632, glass electrode EA 147; φ=5 mm, Metrohm) and the secreted HCl was determined by titration with a freshly prepared 0.01 N NaOH solution to pH 7 (Dosimat 665 Metrohm).
Gastric secretion was stimulated by continuous infusion of 1 μg/kg (=1.65 ml/h) of i.v. pentagastrin (left femoral vein) about 30 min after the end of the operation (i.e. after determination of 2 preliminary fractions). The substances to be tested were administered intravenously in 1 ml/kg of fluid volume 60 min after the start of the pentagastrin continuous infusion.
The body temperature of the animals was kept at a constant 37.8-38° C. by means of infrared irradiation and heating pads (automatic, step-free control via a rectal temperature sensor).

| SMILES | melting point [°C] | Inhibition of acid secretion [1] [%] |
| --- | --- | --- |
| Cc1nc2c3c(ccn2c1C)C(=O)[C@@](C)(O)[C@@H](c1ccccc1)N3 [Example 1, (8S,9R)-2,3,8-Trimethyl-8-hydroxy-9-phenyl-7,8,9,10-tetrahydroimidazo[1,2-h][1,7]naphthyridin-7-one] | 240 | – |
| C=C1c2ccn3c(C)c(C)nc3c2N[C@H](c2ccccc2)[C@H]1O [Example 10, (8S,9R)-2,3-Dimethyl-8-hydroxy-7-methylidene-9-phenyl-7,8,9,10-tetrahydroimidazo[1,2-h][1,7]-naphthyridine] | 199 to 202 | 100 |
| Cc1nc2c3c(ccn2c1C)[C@@](C)(O)[C@H](O)[C@@H](c1ccccc1)O3 [Example 12, (7R,8R,9R)-2,3,7-Trimethyl-7,8-dihydroxy-9-phenyl-7H-8,9-dihydropyrano[2,3-c]imidazo[1,2-a]-pyridine] | – | 100 |

Second part, led by results:

| melting point [°C] | SMILES | Inhibition of acid secretion [1] [%] |
| --- | --- | --- |
| 180 | Cc1nc2c3c(ccn2c1C)[C@@H](O)[C@@](C)(O)[C@@H](c1ccccc1)N3 [Example 2, (7R,8S,9R)-2,3,8-Trimethyl-7,8-dihydroxy-9-phenyl-7,8,9,10-tetrahydroimidazo[1,2-h][1,7]naphthyridine] | 100 |
| 248 to 251 | Cc1nc2c3c(ccn2c1C)C(=O)[C@](O)(Cc1ccccc1)[C@@H](c1ccccc1)N3 [Example 3, (8S,9R)-2,3-Dimethyl-8-benzyl-8-hydroxy-9-phenyl-7,8,9,10-tetrahydroimidazo[1,2-h][1,7]naphthyridin-7-one] | – |
| 115 to 122 | Cc1nc2c3c(ccn2c1C)[C@H](O)[C@](O)(Cc1ccccc1)[C@@H](c1ccccc1)N3 [Example 4, (7S,8S,9R)-2,3-Dimethyl-8-benzyl-7,8-dihydroxy-9-phenyl-7,8,9,10-tetrahydroimidazo[1,2-h][1,7]-naphthyridine] | – |
| 190 | CO[C@H]1c2ccn3c(C)c(C)nc3c2N[C@H](c2ccccc2)[C@]1(C)O [Example 7, (7S,8S,9R)-2,3,8-Trimethyl-7-methoxy-8-hydroxy-9-phenyl-7,8,9,10-tetrahydroimidazo[1,2-h]-[1,7]naphthyridine] | – |
| 137 to 138 | Cc1nc2c3c(ccn2c1C)[C@@](C)(O)[C@H](O)[C@@H](c1ccccc1)N3 [Example 8, (7R,8R,9R)-2,3,7-Trimethyl-7,8-dihydroxy-9-phenyl-7,8,9,10-tetrahydroimidazo[1,2-h][1,7]-naphthyridine] | 100 |
